Converted amounts (≈) assume the structure as drawn. Like-named read-outs stand apart in the source and are kept apart here.
Assays:
[1] = system: Klebsiella pneumonia (producing ESBL); assay: In vitro antibacterial activity, agar dilution method (clinical isolates); type: cell-based; settings: Klebsiella pneumoniae; clinically isolated strains (producing ESBL), Gram-negative, agar dilution; read-out: MIC90 Klebsiella pneumonia
Source text: (§1) Bacterial strains for test: All the bacterial strains are clinical isolates and purchased from public organizations. methicillin-sensitive staphylococcus aureus (MS SA), methicillin-resistant staphylococcus aureus (MRSA), methicillin-sensitive staphylococcus epidermidis (MSSE), methicillin-resistant staphylococcus epidermidis (MRSE), streptococcus pyogenes, penicillin-sensitive streptococcus pneumoniae (PSSP), penicillin-resistant streptococcus pneumoniae (PRSP), Escherichia coli, Citrobacter freundii, Enterobacter cloacae, Hemophilus influenza, Klebsiella pneumonia (producing ESBL), Morganella morganii, Proteus mirabilis, Serratia marcescens, and Pseudomonas aeruginosa.
(§2) Drugs to be tested: compounds of the invention prepared in the examples; the chemical names, structural formulae, preparation materials, and preparation methods are provided in the preparation examples of the compounds;
(§3) Meropenem (Meropenem for injection), Ertapenem (Ertapenem for injection), and Doripenem (Doripenem for injection) commercially available
(§4) Experimental method: the agar dilution method, by reference to Methodology of Pharmacological Experiment (XU Shuyun et al, published by the Peoples Medical Publishing House, 1st Edition, August, 1982; 3rd Edition, 5th printing, January 2002, p 1659-1660).

[2] = system: methicillin-sensitive staphylococcus aureus (MSSA); assay: as above; type: cell-based; settings: read-out: MIC90 S. aureus MSSA
Source text: as §1, §2, §3, §4

Enterobacter cloacae = assay: as above; type: cell-based; settings: read-out: MIC90 Enterobacter cloacae
Source text: as §1, §2, §3, §4

Proteus mirabilis = assay: as above; type: cell-based; settings: clinically isolated strains, Gram-negative, agar dilution, read-out: MIC90 Proteus mirabilis
Source text: as §1, §2, §3, §4

[3] = system: methicillin-resistant staphylococcus aureus (MRSA); assay: as above; type: cell-based; settings: clinically isolated strains, Gram-positive, read-out: MIC90 S. aureus MRSA
Source text: as §1, §2, §3, §4

[4] = system: methicillin-resistant staphylococcus epidermidis (MRSE); assay: as above; type: cell-based; settings: clinically isolated strains, Gram-positive, read-out: MIC90 S. epidermidis MRSE
Source text: as §1, §2, §3, §4

Morganella morganii = assay: as above; type: cell-based; settings: clinically isolated strains, Gram-negative
Source text: as §1, §2, §3, §4

Escherichia coli = assay: as above; type: cell-based; settings: clinically isolated strains, Gram-negative, read-out: MIC90 E. coli
Source text: as §1, §2, §3, §4

Hemophilus influenza = assay: as above; type: cell-based; settings: read-out: MIC90 Hemophilus influenza
Source text: as §1, §2, §3, §4

Pseudomonas aeruginosa = assay: as above; type: cell-based; settings: clinically isolated strains, Gram-negative
Source text: as §1, §2, §3, §4

streptococcus pyogenes = assay: as above; type: cell-based; settings: clinically isolated strains, Gram-positive, read-out: MIC90 S. pyogenes
Source text: as §1, §2, §3, §4

[5] = system: methicillin-sensitive staphylococcus epidermidis (MSSE); assay: as above; type: cell-based; settings: read-out: MIC90 S. epidermidis MSSE
Source text: as §1, §2, §3, §4

[6] = system: penicillin-resistant streptococcus pneumoniae (PRSP); assay: as above; type: cell-based; settings: clinically isolated strains, Gram-positive, read-out: MIC90 S. pneumoniae PRSP
Source text: as §1, §2, §3, §4

[7] = system: penicillin-sensitive streptococcus pneumoniae (PSSP); assay: as above; type: cell-based; settings: clinically isolated strains, Gram-positive, read-out: MIC90 S. pneumoniae PSSP
Source text: as §1, §2, §3, §4

Citrobacter freundii = assay: as above; type: cell-based; settings: clinically isolated strains, Gram-negative
Source text: as §1, §2, §3, §4

Serratia marcescens = assay: as above; type: cell-based; settings: read-out: MIC90 Serratia marcescens
Source text: as §1, §2, §3, §4

[8] = Pharmacokinetic study of the compounds in SD rat (intravenous injection); type: in vivo, SD male rats; settings: in vivo, SD male rats, intravenous injection 10 mg/kg, plasma, X ± SD, n = 3, read-out: t1/2 (half lives) (converted)
Description: Test drugs: the compound 1, 6, 8 and 9 prepared in the examples
Control drugs: Meropenem (Meropenem for injection), commercially available; Doripenem (Doripenem for Injection).
Internal standard substance: Warfarin, a white powder, purity 99%, batch number: 0072-8501, provided by Shanghai Institute for Drug Control.
Drug formulation: the test drugs were formulated before use by being dissolved in physiological saline to make a final concentration of 5 mg/mL for intravenous injection.
Test animal: SD male rats, weight: 200˜250 g, purchased from SHANGHAI SLAC LABORATORY ANIMAL CO. LTD.
Drug administration: The SD male rats were randomly divided into five groups with 3 in each group, and given the drugs by intravenous injection at a dose of 10 mg/kg. The animals were weighed before administration.
Collection of Samples: Zero time was marked before administration; 0.5 mL of blood was respectively sampled from orbit venous plexus at 5 min, 15 min, 30 min, 45 min, 1 h, 2 h, 4 h, 6 h, 8 h, 24 h after administration into heparinized centrifuge tubes. The samples were centrifuged for 6 minutes at 8000 rpm and the supernatant plasma was separated. The plasma was frozen at −20° C. for LC-MS/MS analysis.
Chromatographic conditions: column: Gemini C6-Phenyl (50 mm×4.6 mm, 5 μm); mobile phase: 0.1% of formic acid-water-acetonitrile (5:35:60, v/v/v); flow rate: 1 mL/min; column temperature: 35-40° C.; injection volume: 5 μL; split ratio: 1/5.
Mass spectrometer conditions: scanning mode: cation multiple reactions monitoring (MRM); ion source: electrospray ionization (ESI); Nebulize gas: 8 L/min; Curtain gas: 8 L/min; Collision gas: 4 L/min; Ionspray voltage: 4500 v; Temperature: 400° C./500° C.
Preparation of the Standard Curve and Quality-Control Sample: a Suitable Amount of the test drug was weighed precisely and then formulated into a stock solution (2.6 mg/mL) with ultrapure water. The stock solution was diluted with methanol to obtain a series of working solutions in a concentration of 25000, 5000, 2500, 500, 250 and 50 ng/mL, respectively. 100 μL of plasma samples were separately added into 20 μL of said working solutions to obtain the calibration solutions in a concentration of 5000, 1000, 500, 100, 50 and 10 ng/mL. By the same method, the quality-controlled sample solutions in a concentration of 4000, 800 and 20 ng/mL can be prepared. A standard curve was obtained by chromatographic analysis of the samples.
Sample preparation: 20 μL of acetonitrile and 200 μL (200 ng/mL) of Warfarin in acetonitrile were added into 100 μL of plasma sample, then spun for 1 minute and centrifuged for 5 minutes at 15000 rpm. 100 μL of the supernatant was taken, where 3 μL aliquot of the supernatant was used for the LC/MS/MS analysis.
Dosing concentration: The accuracy of the drug concentration in dosing solution for intravenous injection was 103.2%, determined by analysis of the formulated drugs using HPLC and comparison with the standards.
Data analysis: The drug concentration in plasma would be considered as zero if under the detection limit (10 ng/mL). The pharmacokinetics parameters were calculated by the non-compartment model using Winnonlin Professional 5.2 pharmacokinetics software.
Pharmacokinetics: The pharmacokinetics parameters and drug concentration-time curve were obtained by measuring the plasma drug concentration at different time points.

[9] = clinically isolated strains, Gram-positive, agar dilution
[10] = clinically isolated strains, Gram-negative, agar dilution

C[C@@H](O)[C@H]1C(=O)N2C(C(=O)O)=C(SC3CN(S(N)(=O)=O)C3)[C@H](C)[C@H]12 [Compound 1, (4R,5S,6S)-3-[N-aminosulfonyl-azetidin-3-yl]thio-6-[(1R)-1-hydroxyethyl]-4-methyl-7-oxo-1-aza-bicyclo-[3.2.0]hept-2-ene-2-carboxylic acid]
MIC90 [1]: 0.032 µg/mL (≈ 0.0848 µM) | MIC90 [2, 9]: 0.032 µg/mL (≈ 0.0848 µM) | MIC90 (Enterobacter cloacae; [10]): 0.063 µg/mL (≈ 0.167 µM) | MIC90 (Proteus mirabilis): 0.63 µg/mL (≈ 1.67 µM) | MIC90 [3]: 4 µg/mL (≈ 10.6 µM) | MIC90 [4]: 4 µg/mL (≈ 10.6 µM) | MIC90 (Morganella morganii): 0.032 µg/mL (≈ 0.0848 µM) | MIC90 (Escherichia coli): 0.008 µg/mL (≈ 0.0212 µM) | MIC90 (Hemophilus influenza): 0.063 µg/mL (≈ 0.167 µM) | MIC90 (Pseudomonas aeruginosa): 4 µg/mL (≈ 10.6 µM) | MIC90 (streptococcus pyogenes): 0.004 µg/mL (≈ 0.0106 µM) | MIC90 [5, 9]: 0.063 µg/mL (≈ 0.167 µM) | MIC90 [6]: 0.5 µg/mL (≈ 1.32 µM) | MIC90 [7]: 0.008 µg/mL (≈ 0.0212 µM) | MIC90 (Citrobacter freundii): 0.016 µg/mL (≈ 0.0424 µM) | MIC90 (Serratia marcescens; [10]): 0.063 µg/mL (≈ 0.167 µM) | half-life [8]: 19.2 ± 1.2 min

C[C@@H](O)[C@H]1C(=O)N2C(C(=O)O)=C(SC3CN(S(=O)(=O)N(C)C)C3)[C@H](C)[C@H]12 [Compound 6, (4R,5S,6S)-3-[1-(N,N-dimethylaminosulfonyl)-azetidin-3-yl]-thio-6-[(1R)-1-hydroxyethyl]-4-methyl-7-oxo-1-aza-bicyclo-[3.2.0]hept-2-ene-2-carboxylic acid]
MIC90 [1]: 0.125 µg/mL (≈ 0.308 µM) | MIC90 [2, 9]: 0.063 µg/mL (≈ 0.155 µM) | MIC90 (Enterobacter cloacae; [10]): 0.25 µg/mL (≈ 0.617 µM) | MIC90 (Proteus mirabilis): 0.063 µg/mL (≈ 0.155 µM) | MIC90 [3]: 8 µg/mL (≈ 19.7 µM) | MIC90 [4]: 16 µg/mL (≈ 39.5 µM) | MIC90 (Morganella morganii): 0.063 µg/mL (≈ 0.155 µM) | MIC90 (Escherichia coli): 0.016 µg/mL (≈ 0.0395 µM) | MIC90 (Hemophilus influenza; [10]): 0.25 µg/mL (≈ 0.617 µM) | MIC90 (Pseudomonas aeruginosa): 16 µg/mL (≈ 39.5 µM) | MIC90 (streptococcus pyogenes): 0.008 µg/mL (≈ 0.0197 µM) | MIC90 [5, 9]: 0.063 µg/mL (≈ 0.155 µM) | MIC90 [6]: 1 µg/mL (≈ 2.47 µM) | MIC90 [7]: 0.004 µg/mL (≈ 0.00986 µM) | MIC90 (Citrobacter freundii): 0.063 µg/mL (≈ 0.155 µM) | MIC90 (Serratia marcescens; [10]): 0.063 µg/mL (≈ 0.155 µM) | half-life [8]: 18 ± 1.8 min

CCCCN(CCCC)S(=O)(=O)N1CC(SC2=C(C(=O)O)N3C(=O)[C@H]([C@@H](C)O)[C@H]3[C@H]2C)C1 [Compound 8, (4R,5S,6S)-3-[1-(N,N-dibutylaminosulfonyl)-azetidin-3-yl]thio-6-[(1R)-1-hydroxyethyl]-4-methyl-7-oxo-1-aza-bicyclo-[3.2.0]hept-2-ene-2-carboxylic acid]
MIC90 [1]: 0.032 µg/mL (≈ 0.0654 µM) | MIC90 [2]: 0.125 µg/mL (≈ 0.255 µM) | MIC90 (Enterobacter cloacae): 0.125 µg/mL (≈ 0.255 µM) | MIC90 (Proteus mirabilis): 0.063 µg/mL (≈ 0.129 µM) | MIC90 [3]: 8 µg/mL (≈ 16.3 µM) | MIC90 [4]: 8 µg/mL (≈ 16.3 µM) | MIC90 (Morganella morganii): 0.032 µg/mL (≈ 0.0654 µM) | MIC90 (Escherichia coli): 0.016 µg/mL (≈ 0.0327 µM) | MIC90 (Hemophilus influenza; [10]): 0.125 µg/mL (≈ 0.255 µM) | MIC90 (Pseudomonas aeruginosa): 8 µg/mL (≈ 16.3 µM) | MIC90 (streptococcus pyogenes): 0.004 µg/mL (≈ 0.00817 µM) | MIC90 [5]: 0.125 µg/mL (≈ 0.255 µM) | MIC90 [6]: 1 µg/mL (≈ 2.04 µM) | MIC90 [7]: 0.004 µg/mL (≈ 0.00817 µM) | MIC90 (Citrobacter freundii): 0.016 µg/mL (≈ 0.0327 µM) | MIC90 (Serratia marcescens): 0.125 µg/mL (≈ 0.255 µM) | half-life [8]: 16.2 ± 1.8 min
